These are literature values, as cited in patent US8657798B2, “Anti-inflammatory analgesic adhesive patch for external use” (Teikoku Seiyaku Co., Ltd., priority 2010, dated 2014).

The conditions of this series: compared with diclofenac sodium.

For the substance Diclofenac hydroxyethylpyrrolidine, the water solubility entry is recorded as “better water solubility than diclofenac sodium”.
